Measured values: the supplement of paper PMC10883282

Assays:
Experiment in all cases: relative viability vs DMSO control (72 h) (fraction); higher = more viable cells
G401 = tested on: G401
Procedure, shortened: (§1)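 Sarcoma cell lines in 384-well plates, seeded to reach 80–90% confluence, were given compound after 24 h and kept 72 h at 37 °C, 5% CO2, with 0.1% DMSO vehicle and a 5 µM positive control. Relative viability came from ATPLite as percent growth, averaged over up to triplicate wells. On the rescaled values, 1 equals full and 0 equals none.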

HS729 = tested on: HS729
Procedure, shortened: as §1

HT1080 = tested on: HT1080
Procedure, shortened: as §1

KHOS-240S = tested on: KHOS-240S
Procedure, shortened: as §1

KHOS-NP = tested on: KHOS-NP
Procedure, shortened: as §1

RD-ES = tested on: RD-ES
Procedure, shortened: as §1

RD = tested on: RD
Procedure, shortened: as §1

SK-LMS-1 = tested on: SK-LMS-1
Procedure, shortened: as §1

SW1353 = tested on: SW1353
Procedure, shortened: as §1

SW684 = tested on: SW684
Procedure, shortened: as §1

SW872 = tested on: SW872
Procedure, shortened: as §1

SYO-1 = tested on: SYO-1
Procedure, shortened: as §1

CC(C)Oc1ccc(-c2nn([C@@H](C)c3oc4ccc(F)cc4c(=O)c3-c3cccc(F)c3)c3ncnc(N)c23)cc1F [Umbralisib]
Details	relative viability
G401, 0.00017 µM	1.02
G401, 0.00051 µM	1.068
G401, 0.00152 µM	1.09
G401, 0.00457 µM	1.05
G401, 0.01372 µM	1.03
G401, 0.04115 µM	1.01
G401, 0.1235 µM	1.02
G401, 0.3704 µM	0.99
G401, 1.111 µM	0.988
G401, 3.333 µM	1.05
G401, 10 µM	1.1
HS729, 0.00017 µM	1.09
HS729, 0.00051 µM	1.09
HS729, 0.00152 µM	1.05
HS729, 0.00457 µM	1.04
HS729, 0.01372 µM	1.05
HS729, 0.04115 µM	0.991
HS729, 0.1235 µM	1.04
HS729, 0.3704 µM	1.01
HS729, 1.111 µM	0.942
HS729, 3.333 µM	0.936
HS729, 10 µM	0.895
HT1080, 0.00017 µM	1.07
HT1080, 0.00051 µM	1.09
HT1080, 0.00152 µM	1.07
HT1080, 0.00457 µM	1.09
HT1080, 0.01372 µM	1.06
HT1080, 0.04115 µM	1.069
HT1080, 0.1235 µM	1.08
HT1080, 0.3704 µM	1.07
HT1080, 1.111 µM	1.05
HT1080, 3.333 µM	1.05
HT1080, 10 µM	0.955
KHOS-240S, 0.00017 µM	1.05
KHOS-240S, 0.00051 µM	1.08
KHOS-240S, 0.00152 µM	1.09
KHOS-240S, 0.00457 µM	1.08
KHOS-240S, 0.01372 µM	1.07
KHOS-240S, 0.04115 µM	1.06
KHOS-240S, 0.1235 µM	1.07
KHOS-240S, 0.3704 µM	1.06
KHOS-240S, 1.111 µM	1.03
KHOS-240S, 3.333 µM	1
KHOS-240S, 10 µM	0.909
KHOS-NP, 0.00017 µM	1.091
KHOS-NP, 0.00051 µM	1.085
KHOS-NP, 0.00152 µM	1.095
KHOS-NP, 0.00457 µM	1.1
KHOS-NP, 0.01372 µM	1.1
KHOS-NP, 0.04115 µM	1.09
KHOS-NP, 0.1235 µM	1.11
KHOS-NP, 0.3704 µM	1.08
KHOS-NP, 1.111 µM	1.1
KHOS-NP, 3.333 µM	1.1
KHOS-NP, 10 µM	1.077
RD, 0.00017 µM	1.1
RD, 0.00051 µM	1.08
RD, 0.00152 µM	1.11
RD, 0.00457 µM	1.1
RD, 0.01372 µM	1.113
RD, 0.04115 µM	1.11
RD, 0.1235 µM	1.12
RD, 0.3704 µM	1.08
RD, 1.111 µM	1.14
RD, 3.333 µM	1.11
RD, 10 µM	1.11
RD-ES, 0.00017 µM	1
RD-ES, 0.00051 µM	1
RD-ES, 0.00152 µM	1.01
RD-ES, 0.00457 µM	1.001
RD-ES, 0.01372 µM	0.979
RD-ES, 0.04115 µM	1
RD-ES, 0.1235 µM	1.02
RD-ES, 0.3704 µM	1
RD-ES, 1.111 µM	0.994
RD-ES, 3.333 µM	1.01
RD-ES, 10 µM	1.02
SK-LMS-1, 0.00017 µM	1.07
SK-LMS-1, 0.00051 µM	1.06
SK-LMS-1, 0.00152 µM	1.06
SK-LMS-1, 0.00457 µM	1.04
SK-LMS-1, 0.01372 µM	1.05
SK-LMS-1, 0.04115 µM	1.05
SK-LMS-1, 0.1235 µM	1.03
SK-LMS-1, 0.3704 µM	1.06
SK-LMS-1, 1.111 µM	1.02
SK-LMS-1, 3.333 µM	0.875
SK-LMS-1, 10 µM	0.752
SW684, 0.00017 µM	1.13
SW684, 0.00051 µM	1.17
SW684, 0.00152 µM	1.16
SW684, 0.00457 µM	1.21
SW684, 0.01372 µM	1.2
SW684, 0.04115 µM	1.19
SW684, 0.1235 µM	1.16
SW684, 0.3704 µM	1.06
SW684, 1.111 µM	0.966
SW684, 3.333 µM	0.9274
SW684, 10 µM	0.882
SW872, 0.00017 µM	1.09
SW872, 0.00051 µM	1.09
SW872, 0.00152 µM	1.1
SW872, 0.00457 µM	1.08
SW872, 0.01372 µM	1.11
SW872, 0.04115 µM	1.087
SW872, 0.1235 µM	1.07
SW872, 0.3704 µM	1.07
SW872, 1.111 µM	1.09
SW872, 3.333 µM	1.095
SW872, 10 µM	1.04
SW1353, 0.00017 µM	1.03
SW1353, 0.00051 µM	1.03
SW1353, 0.00152 µM	1.032
SW1353, 0.00457 µM	1.06
SW1353, 0.01372 µM	1.03
SW1353, 0.04115 µM	1
SW1353, 0.1235 µM	1.01
SW1353, 0.3704 µM	0.959
SW1353, 1.111 µM	0.97
SW1353, 3.333 µM	0.946
SW1353, 10 µM	0.8866
SYO-1, 0.00017 µM	1.04
SYO-1, 0.00051 µM	1.02
SYO-1, 0.00152 µM	1.03
SYO-1, 0.00457 µM	1.03
SYO-1, 0.01372 µM	1.03
SYO-1, 0.04115 µM	0.995
SYO-1, 0.1235 µM	1.01
SYO-1, 0.3704 µM	1.02
SYO-1, 1.111 µM	0.975
SYO-1, 3.333 µM	0.968
SYO-1, 10 µM	0.897
